Results: US7750155B2, “Pyrazinyl hydroxyacrylamide compounds having an inhibitory effect on the activity of histone deacetylase” (Astellas Pharma Inc., priority 2006, dated 2010)
Structures can show the parent of a compound that is named as a salt.

Assays:
[1] = test system: T1, human histone deacetylase partially purified from human T cell leukemia Jurkat cells; assay: Test 1: Determination of histone deacetylase inhibitor activity ([3H]acetyl histone deacetylation); format: biochemical; settings: partially purified human HDAC from Jurkat cells, [3H]acetyl histone substrate, 25° C., 30 minutes; read-out: Test 1: HDAC inhibitory activity IC50
T1 construct: The human histone deacetylase was partially purified from human T cell leukemia Jurkat cells
Description: Test 1: Determination of Histone Deacetylase Inhibitor Activity
The partial purification of human histone deacetylase, the preparation of [^3H] acetyl histones, and the assay for histone deacetylase activity were performed basically according to the method as proposed by Yoshida et al. as follows.
Partial Purification of Human Histone Deacetylase
The human histone deacetylase was partially purified from human T cell leukemia Jurkat cells. Jurkat cells (5×10^8 cells) were suspended in 40 mL of the HDA buffer consisting of 15 mM potassium phosphate, pH 7.5, 5% glycerol and 0.2 mM EDTA. After homogenization, nuclei were collected by centrifugation (35,000×g, 10 min) and homogenized in 20 mL of the same buffer supplemented with 1 M (NH4)2SO4. The viscous homogenate was sonicated and clarified by centrifugation (35,000×g, 10 min), and the deacetylase was precipitated by raising the concentration of (NH4)2SO4 to 3.5 M. The precipitated protein was dissolved in 10 mL of the HDA buffer and dialyzed against 4 liters of the same buffer. The dialyzate was then loaded onto a DEAE-cellulose (Whatman DE52) column (25×85 mm) equilibrated with the same buffer and eluted with 300 mL of a linear gradient (0-0.6 M) of NaCl. A single peak of histone deacetylase activity appeared between 0.3 and 0.4 M NaCl.
Preparation of [^3H] Acetyl Histone
To obtain [^3H] acetyl-labeled histone as the substrate for the histone deacetylase assay, 1×10^8 cells of Jurkat in 20 mL of RPMI-1640 medium (supplemented with 10% FBS, penicillin (50 units/mL) and streptomycin (50 μg/mL)) were incubated with 300 MBq [^3H] sodium acetate in the presence of 5 mM sodium butyrate for 30 minutes in 5% CO2-95% air atmosphere at 37° C. in a […] flask, harvested into a centrifuge tube (50 mL), collected by centrifugation at 1000 rpm for 10 minutes, and washed once with phosphate-buffered saline. The washed cells were suspended in 15 mL of ice-cold lysis buffer (10 mM Tris-HCl, 50 mM sodium bisulfite, 1% Triton X-100, 10 mM MgCl2, 8.6% sucrose, pH 6.5). After Dounce homogenization (30 stroke), the nuclei were collected by centrifugation at 1000 rpm for 10 minutes, washed 3 times with 15 mL of the lysis buffer, and once with 15 mL of ice-cooled washing buffer (10 mM Tris-HCl, 13 mM EDTA, pH 7.4) successively. The pellet was suspended in 6 mL of ice-cooled water using a mixer, and 68 μl of H2SO4 was added to the suspension to give a concentration of 0.4 N. After incubation at 4° C. for 1 hour, the suspension was centrifuged for 5 minutes at 15,000 rpm, and the supernatant was taken and mixed with 60 mL of acetone. After overnight incubation at −20° C., the coagulated material was collected by microcentrifugation, air-dried, and stored at −80° C.
Assay for Histone Deacetylase Activity
For the standard assay, 10 μl of [^3H] acetyl-labeled histones were added to 90 μl of the enzyme fraction, and the mixture was incubated at 25° C. for 30 minutes. The reaction was stopped by addition of 10 μl of HCl. The released [^3H] acetic acid was extracted with 1 mL of ethyl acetate, and 0.9 mL of the solvent layer was taken into 10 mL of toluene scintillation solution for determination of radioactivity.

[2] = test system: splenic cells of Lewis rats (T lymphocyte blastogenesis); assay: Test 2: T-cell growth inhibitor activity (T lymphocyte blastogenesis, Concanavalin A, AlamarBlue); format: cell-based; settings: Lewis rat splenic cells, Concanavalin A 1 μg/mL, 72 hours, read-out: Test 2: T-cell growth inhibitory activity IC50
Description: Test 2: Determination of T-Cell Growth Inhibitor Activity
The T lymphocyte blastogenesis test was performed in microtiter plates with each well containing 1.5×10^5 splenic cells of Lewis rats in 0.1 mL RPMI-1640 medium supplemented with 10% fetal bovine serum (FBS), […] 2-mercaptoethanol, penicilln (100 units/mL) and streptomycin (100 μg/mL), to which Concanavalin A (1 μg/mL) was added. The cells were incubated at 37° C. in a humidified atmosphere of 5% CO2 for 72 hours. After the culture period, suppressive activities of the test compounds in T lymphocyte blastogenesis were quantified by AlamarBlue (trademark) Assay. The test samples were dissolved in DMSO and further diluted with RPMI-1640 medium and added to the culture. The activities of the test compounds were expressed as IC50.

Which results are given for `O=C(/C=C/c1cnc(N[C@@H]2CCCN(CCc3ccc(F)cc3F)C2)cn1)NO` [Example 8, (2E)-3-[5-({(3R)-1-[2-(2,4-difluorophenyl)ethyl]-3-piperidinyl}amino)-2-pyrazinyl]-N-hydroxyacrylamide dihydrochloride]?
IC50 [1]: 1.7 nM; IC50 [2]: 1.1 nM

What does the source list for `COc1cc(CN2CC[C@@H](Nc3cnc(/C=C/C(=O)NO)cn3)C2)ccc1F` [Example 11, (2E)-3-(5-{[(3R)-1-(4-fluoro-3-methoxybenzyl)-3-pyrrolidinyl]amino}-2-pyrazinyl)-N-hydroxyacrylamide dihydrochloride]?
IC50 [1]: 0.95 nM; IC50 [2]: 4.5 nM

How did the IC50 [1] turn out when `O=C(/C=C/c1cnc(N[C@@H]2CCN(CCc3ccccc3Cl)C2)cn1)NO` [Example 22, (2E)-3-[5-({(3R)-1-[2-(2-chlorophenyl)ethyl]-3-pyrrolidinyl}amino)-2-pyrazinyl]-N-hydroxyacrylamide dihydrochloride] was run?
The IC50 was 0.87 nM.

And the IC50 [2]?
The IC50 was 1.3 nM.

For `O=C(/C=C/c1cnc(N[C@@H]2CCN(Cc3cccc4ccccc34)C2)cn1)NO` [Example 16, (2E)-N-hydroxy-3-[5-[{(3R)-1-(1-naphthylmethyl)-3-pyrrolidinyl}amino]-2-pyrazinyl]acrylamide dihydrochloride], which IC50 [1] is on record?
The IC50 was 6.6 nM.

And the IC50 [2]?
The IC50 was 4.1 nM.

Which IC50 [1] does the source give for `O=C(/C=C/c1cnc(N[C@@H]2CCCN(CCC3CCCC3)C2)cn1)NO` [Example 24, (2E)-3-(5-{[(3R)-1-(2-cyclopentylethyl)-3-piperidinyl]amino}-2-pyrazinyl)-N-hydroxyacrylamide dihydrochloride] here?
The IC50 was 0.81 nM.

And the IC50 [2]?
Its IC50 is 2.4 nM.

`O=C(/C=C/c1cnc(N[C@@H]2CCN(CCC3CCCC3)C2)cn1)NO` [Example 20, (2E)-3-(5-{[(3R)-1-(2-cyclopentylethyl)-3-pyrrolidinyl]amino}-2-pyrazinyl)-N-hydroxyacrylamide dihydrochloride] was tested. Which IC50 [1] did it give?
The IC50 was 0.79 nM.

And the IC50 [2]?
The IC50 was 2.1 nM.

For `O=C(/C=C/c1cnc(N[C@@H]2CCN(CCc3ccc(F)cc3F)C2)cn1)NO` [Example 2, (2E)-3-[5-({(3R)-1-[2-(2,4-difluorophenyl)ethyl]-3-pyrrolidinyl}amino)-2-pyrazinyl]-N-hydroxyacrylamide dihydrochloride], which IC50 [1] is on record?
Its IC50 is 1.5 nM.

And the IC50 [2]?
Its IC50 is 2.3 nM.

Which results are given for `O=C(/C=C/c1cnc(N[C@@H]2CCCN(CCc3ccccc3Cl)C2)cn1)NO` [Example 26, (2E)-3-[5-({(3R)-1-[2-(2-chlorophenyl)ethyl]-3-piperidinyl}amino)-2-pyrazinyl]-N-hydroxyacrylamide dihydrochloride]?
IC50 [1]: 1.4 nM; IC50 [2]: 0.44 nM

What does the source list for `CC(C)(CN1CC[C@@H](Nc2cnc(/C=C/C(=O)NO)cn2)C1)c1ccccc1` [Example 28, (2E)-N-hydroxy-3-[5-[{(3R)-1-(2-methyl-2-phenylpropyl)-3-pyrrolidinyl}amino]-2-pyrazinyl]acrylamide dihydrochloride]?
IC50 [1]: 4.2 nM; IC50 [2]: 11 nM

Which IC50 [1] does the source give for `O=C(/C=C/c1cnc(N[C@@H]2CCN(CCc3c(F)cccc3F)C2)cn1)NO` [Example 3, (2E)-3-[5-({(3R)-1-[2-(2,6-difluorophenyl)ethyl]-3-pyrrolidinyl}amino)-2-pyrazinyl]-N-hydroxyacrylamide dihydrochloride] here?
The IC50 was 2.7 nM.

And the IC50 [2]?
The IC50 was 1.2 nM.

With `O=C(/C=C/c1cnc(N[C@@H]2CCCN(CCc3ccc(F)c(F)c3)C2)cn1)NO` [Example 9, (2E)-3-[5-({(3R)-1-[2-(3,4-difluorophenyl)ethyl]-3-piperidinyl}amino)-2-pyrazinyl]-N-hydroxyacrylamide dihydrochloride] as the molecule, how does the IC50 [1] read?
Its IC50 is 1 nM.

And the IC50 [2]?
The IC50 was 1.8 nM.

What does the source list for `O=C(/C=C/c1cnc(N[C@@H]2CCN(CC3CCCC3)C2)cn1)NO` [Example 12, (2E)-3-(5-{[(3R)-1-(cyclopentylmethyl)-3-pyrrolidinyl]amino}-2-pyrazinyl)-N-hydroxyacrylamide dihydrochloride]?
IC50 [1]: 0.59 nM; IC50 [2]: 2 nM

Which results are given for `O=C(/C=C/c1cnc(N[C@@H]2CCCN(CCc3ccccc3F)C2)cn1)NO` [Example 7, (2E)-3-[5-({(3R)-1-[2-(2-fluorophenyl)ethyl]-3-piperidinyl}amino)-2-pyrazinyl]-N-hydroxyacrylamide dihydrochloride]?
IC50 [1]: 1.5 nM; IC50 [2]: 0.79 nM

For `COc1ccc(F)cc1CN1CC[C@@H](Nc2cnc(/C=C/C(=O)NO)cn2)C1` [Example 15, (2E)-3-(5-{[(3R)-1-(5-fluoro-2-methoxybenzyl)-3-pyrrolidinyl]amino}-2-pyrazinyl)-N-hydroxyacrylamide dihydrochloride], which IC50 [1] is on record?
The IC50 was 4.4 nM.

What about the IC50 [2] of the same molecule?
Its IC50 is 6.4 nM.

For `O=C(/C=C/c1cnc(N[C@@H]2CCN(CCc3cccs3)C2)cn1)NO` [Example 4, (2E)-N-hydroxy-3-[5-({(3R)-1-[2-(2-thienyl)ethyl]-3-pyrrolidinyl}amino)-2-pyrazinyl]acrylamide dihydrochloride], which IC50 [1] is on record?
Its IC50 is 3.6 nM.

And the IC50 [2]?
The IC50 was 1.2 nM.

Which IC50 [1] does the source give for `O=C(/C=C/c1cnc(N[C@@H]2CCN(CC3(CO)CCCCC3)C2)cn1)NO` [Example 13, (2E)-N-hydroxy-3-(5-{[(3R)-1-{[1-(hydroxymethyl)cyclohexyl]methyl}-3-pyrrolidinyl]amino}-2-pyrazinyl)acrylamide dihydrochloride] here?
Its IC50 is 1.9 nM.

What about the IC50 [2] of the same molecule?
The IC50 was 4.7 nM.

How did the IC50 [1] turn out when `O=C(/C=C/c1cnc(N[C@@H]2CCCN(CCc3ccc(Cl)cc3)C2)cn1)NO` [Example 27, (2E)-3-[5-({(3R)-1-[2-(4-chlorophenyl)ethyl]-3-piperidinyl}amino)-2-pyrazinyl]-N-hydroxyacrylamide dihydrochloride] was run?
Its IC50 is 0.92 nM.

What about the IC50 [2] of the same molecule?
Its IC50 is 0.38 nM.

For `O=C(/C=C/c1cnc(N[C@@H]2CCN(CC34CCC(CC3)O4)C2)cn1)NO` [Example 14, (2E)-N-hydroxy-3-(5-{[(3R)-1-(7-oxabicyclo[2.2.1]hept-1-ylmethyl)-3-pyrrolidinyl]amino}-2-pyrazinyl)acrylamide dihydrochloride], which IC50 [1] is on record?
The IC50 was 3.8 nM.

And the IC50 [2]?
The IC50 was 1.2 nM.

Which IC50 [1] does the source give for `O=C(/C=C/c1cnc(N[C@@H]2CCCN(CCCc3ccccc3)C2)cn1)NO` [Example 17, (2E)-N-hydroxy-3-[5-[{(3R)-1-(3-phenylpropyl)-3-piperidinyl}amino]-2-pyrazinyl]acrylamide dihydrochloride] here?
Its IC50 is 3.3 nM.

What about the IC50 [2] of the same molecule?
The IC50 was 5 nM.

Which IC50 [1] does the source give for `O=C(/C=C/c1cnc(N[C@@H]2CCN(CCCC3CCCCC3)C2)cn1)NO` [Example 29, (2E)-3-[5-({(3R)-1-(3-cyclohexylpropyl)-3-pyrrolidinyl}amino)-2-pyrazinyl]-N-hydroxyacrylamide dihydrochloride] here?
Its IC50 is 6.5 nM.

What about the IC50 [2] of the same molecule?
The IC50 was 3.3 nM.

`CN(C)c1ccccc1CN1CC[C@@H](Nc2cnc(/C=C/C(=O)NO)cn2)C1` [Example 10, (2E)-3-[5-({(3R)-1-[2-(dimethylamino)benzyl]-3-pyrrolidinyl}amino)-2-pyrazinyl]-N-hydroxyacrylamide trihydrochloride] was tested. Which IC50 [1] did it give?
The IC50 was 3 nM.

And the IC50 [2]?
The IC50 was 3.2 nM.

`O=C(/C=C/c1cnc(N[C@@H]2CCN(CCC3CCCCC3)C2)cn1)NO` [Example 21, (2E)-3-(5-{[(3R)-1-(2-cyclohexylethyl)-3-pyrrolidinyl]amino}-2-pyrazinyl)-N-hydroxyacrylamide dihydrochloride] was tested. Which IC50 [1] did it give?
The IC50 was 0.98 nM.

And the IC50 [2]?
The IC50 was 2.4 nM.
